A short description of assay [1]: cytotoxicity dependent on PAX8, dose response, cell-based, plate reader, dry powder (AID 743049). Format: functional.
Assay [2] is described as follows: cytotoxicity in OV-90 ovarian cancer cells, dose response, PAX8 inhibitor project, cell-based, plate reader, dry powder, SA8 (AID 743149). The assay is classed as functional.
The nature of assay [3]: cytotoxicity in OVCAR4 cells, dose response, cytotoxicity control for PAX8 inhibitor project, cell-based, plate reader, dry powder, SA11 (AID 743150). Format: functional. As to conditions: OVCAR-4.
A short description of assay [4]: PAX5 activity inhibitors, dose response, selectivity assay for PAX8 inhibitor project, cell-based, plate reader, dry powder samples (AID 743047).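 Note: HEK293 cells carrying a Pax5 driven CD19 promoter luciferase reporter; potency of inhibitors that lower reporter luminescence.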 The assay is classed as functional.
The target of another assay is Paired box protein Pax-8 (Homo sapiens, UniProt Q06710). As to the kind of experiment: inhibitors of PAX8-driven TPO luciferase reporter, dose response, RMG-I cells, cherry-pick (AID 687027).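 Note: luciferase reporter driven by Pax8 target thyroperoxidase promoter measured by SteadyGlo luminescence.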 The assay is classed as functional, cell-based. (In general: A reporter such as luciferase makes a cellular process visible.)
Paired box protein Pax-8, sequence (Q06710 whole entry): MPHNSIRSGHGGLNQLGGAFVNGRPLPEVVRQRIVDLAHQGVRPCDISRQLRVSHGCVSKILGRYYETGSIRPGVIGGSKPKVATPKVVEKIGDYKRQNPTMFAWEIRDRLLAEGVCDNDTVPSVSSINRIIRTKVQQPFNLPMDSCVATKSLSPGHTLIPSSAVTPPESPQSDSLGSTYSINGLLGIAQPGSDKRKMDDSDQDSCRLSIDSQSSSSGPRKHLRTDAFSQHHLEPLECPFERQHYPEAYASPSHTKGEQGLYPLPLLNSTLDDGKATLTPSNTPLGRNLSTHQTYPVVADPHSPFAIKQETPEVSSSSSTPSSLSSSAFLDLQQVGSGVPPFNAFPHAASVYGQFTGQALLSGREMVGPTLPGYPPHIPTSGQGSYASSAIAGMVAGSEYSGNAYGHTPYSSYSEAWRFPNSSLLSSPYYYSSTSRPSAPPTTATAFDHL
Assay [5] can be described thus: PAX2 cell-based inhibition, dose response, selectivity assay for PAX8 inhibitor project, plate reader, dry powder samples (AID 743048).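 Note: HEK293 cells carrying a WT1 promoter luciferase reporter driven by expressed Pax2; potency is for inhibition of Pax2 driven reporter signal.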 Format: functional.
The target of assay [6] is T1, Potassium channel subfamily K member 9 (Homo sapiens, UniProt Q9NPC2). Nature of the assay: KCNK9 (TASK3) current inhibition by patch clamp, SAR follow-up, selectivity assay for TASK1 (KCNK3) inhibitor project, cell-based, automated electrophysiology (AID 652210). Format: functional. (In general: Patch clamp records ionic current or voltage across a cell membrane.)
T1 sequence (Q9NPC2 whole entry): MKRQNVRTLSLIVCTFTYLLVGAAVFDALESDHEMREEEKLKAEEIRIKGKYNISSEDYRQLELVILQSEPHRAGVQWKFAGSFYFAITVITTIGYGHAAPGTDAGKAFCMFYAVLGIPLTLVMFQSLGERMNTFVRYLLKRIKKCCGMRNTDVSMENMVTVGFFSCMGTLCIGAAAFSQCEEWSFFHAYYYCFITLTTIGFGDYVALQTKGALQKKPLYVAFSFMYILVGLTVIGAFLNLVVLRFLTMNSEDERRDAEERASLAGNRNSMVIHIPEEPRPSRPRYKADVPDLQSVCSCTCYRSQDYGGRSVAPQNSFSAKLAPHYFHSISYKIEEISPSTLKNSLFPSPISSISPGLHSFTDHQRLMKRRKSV

Assay [7] concerns the target Potassium channel subfamily K member 3 (Homo sapiens, UniProt O14649). Nature of the assay: TASK1 (KCNK3) potassium channel inhibitors, SAR follow-up, CHO cells, FluxOR thallium flux (AID 652212). The assay is classed as functional.
Assay [8] has as its target T1, Potassium channel subfamily K member 9. As to the kind of experiment: TASK3 (KCNK9) channel inhibitors, thallium flux, SAR follow-up, selectivity assay for TASK1 inhibitor project, cell-based, FluxOR thallium flux, concentration-response (AID 652211).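 Note: potency is for inhibitors of the channel.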 Format: functional.
The target of assay [9] is Potassium channel subfamily K member 3 (Rattus norvegicus, UniProt O54912). Nature of the assay: SAR analysis for the identification of selective inhibitors of the two-pore domain potassium channel TASK1(KCNK3):Automated Electrophysiology. The assay is classed as functional.
Potassium channel subfamily K member 3 (Rattus norvegicus, UniProt O54912), sequence (O54912 whole entry, the tested form may be a part): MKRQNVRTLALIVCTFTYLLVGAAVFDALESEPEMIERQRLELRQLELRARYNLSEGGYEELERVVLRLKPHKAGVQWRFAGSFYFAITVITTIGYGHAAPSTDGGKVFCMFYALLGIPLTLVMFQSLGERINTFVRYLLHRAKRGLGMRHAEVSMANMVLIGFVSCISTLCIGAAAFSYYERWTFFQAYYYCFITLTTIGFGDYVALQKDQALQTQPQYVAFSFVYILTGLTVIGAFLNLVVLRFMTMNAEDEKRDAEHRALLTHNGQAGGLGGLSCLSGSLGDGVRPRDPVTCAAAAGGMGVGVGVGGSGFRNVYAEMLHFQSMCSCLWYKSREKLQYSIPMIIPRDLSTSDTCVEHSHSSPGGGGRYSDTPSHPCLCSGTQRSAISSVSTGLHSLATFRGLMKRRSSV
In assay [10] the target is RNA-editing ligase 1, mitochondrial (Trypanosoma brucei brucei, UniProt P86926). Nature of the assay: TbREL1 ligase inhibitors, dose response, biochemical, fluorescence, Trypanosoma brucei (AID 1117295). Format: functional.
RNA-editing ligase 1, mitochondrial, sequence (P86926 whole entry): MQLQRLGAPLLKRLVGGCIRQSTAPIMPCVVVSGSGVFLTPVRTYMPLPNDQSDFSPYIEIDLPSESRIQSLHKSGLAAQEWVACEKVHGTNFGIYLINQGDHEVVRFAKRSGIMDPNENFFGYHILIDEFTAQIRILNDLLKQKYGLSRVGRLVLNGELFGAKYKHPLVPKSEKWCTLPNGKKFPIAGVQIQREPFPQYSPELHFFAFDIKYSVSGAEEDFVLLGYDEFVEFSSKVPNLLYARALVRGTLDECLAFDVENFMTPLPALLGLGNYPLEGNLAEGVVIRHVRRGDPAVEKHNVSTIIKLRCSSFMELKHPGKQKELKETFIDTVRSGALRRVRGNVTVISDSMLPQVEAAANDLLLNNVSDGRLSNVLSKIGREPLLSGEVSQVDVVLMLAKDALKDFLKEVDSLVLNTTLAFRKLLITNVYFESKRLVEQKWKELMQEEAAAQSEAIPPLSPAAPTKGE
In assay [11] the target is T2, Mannose-6-phosphate isomerase (Homo sapiens, UniProt P34949).
T2 sequence (P34949 whole entry): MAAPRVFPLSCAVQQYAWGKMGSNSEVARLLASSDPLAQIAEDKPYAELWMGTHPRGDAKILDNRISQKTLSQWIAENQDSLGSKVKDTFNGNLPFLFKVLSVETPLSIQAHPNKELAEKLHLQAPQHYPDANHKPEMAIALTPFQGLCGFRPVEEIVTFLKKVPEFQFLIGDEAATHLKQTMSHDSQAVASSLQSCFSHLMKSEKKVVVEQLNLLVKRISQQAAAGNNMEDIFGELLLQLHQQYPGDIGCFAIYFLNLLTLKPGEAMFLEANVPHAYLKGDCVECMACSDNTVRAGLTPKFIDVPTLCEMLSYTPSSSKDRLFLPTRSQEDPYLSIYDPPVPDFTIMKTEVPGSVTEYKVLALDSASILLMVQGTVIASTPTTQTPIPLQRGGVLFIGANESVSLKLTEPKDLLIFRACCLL
Nature of the assay: human PMI inhibitors, high substrate, primary screen, biochemical, fluorescence intensity, high mannose 6-phosphate (AID 1220).

Assay [12] concerns the target Induced myeloid leukemia cell differentiation protein Mcl-1 (Homo sapiens, UniProt Q07820). The assay is classed as functional.
Assay [13] addresses Glutathione-S-transferase (Schistosoma japonicum, UniProt Q26513). Nature of the assay: biotin-GST/anti-GST TR-FRET signal inhibitors, dose response, artefact control for Vif-APOBEC3G degradation inhibitor project, biochemical (AID 1117362). Format: functional. Background: In TR-FRET formats the signal depends on donor and acceptor labels being close together.
Assay [14] addresses T3, RNA-binding protein pos-1 (Caenorhabditis elegans, UniProt G5EF15).
T3 sequence (G5EF15 whole entry): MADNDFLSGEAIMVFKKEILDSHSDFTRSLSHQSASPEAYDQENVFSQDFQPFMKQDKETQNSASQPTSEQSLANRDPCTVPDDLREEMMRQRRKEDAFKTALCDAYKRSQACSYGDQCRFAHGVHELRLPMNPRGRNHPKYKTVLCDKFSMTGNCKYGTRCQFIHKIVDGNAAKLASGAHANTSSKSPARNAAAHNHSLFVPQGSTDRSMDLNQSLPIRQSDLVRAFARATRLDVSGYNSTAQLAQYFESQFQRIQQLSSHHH
As to the kind of experiment: inhibitors of POS-1/mex-3 RNA binding, dose response, biochemical, fluorescence polarization (AID 1964).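 Note: purified POS-1 fused to maltose binding protein made in E. coli; potency of compounds blocking POS-1 binding to fluorescent RNA.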

For the next assay, the target named is Genome polyprotein (dengue virus type 2, UniProt P29990). As to the kind of experiment: Dengue-2 NS5 methyltransferase inhibitors, primary screen, biochemical, confirmation dose response (AID 588689). The assay is classed as functional.
Genome polyprotein, sequence (P29990 2492-3391 limits assumed): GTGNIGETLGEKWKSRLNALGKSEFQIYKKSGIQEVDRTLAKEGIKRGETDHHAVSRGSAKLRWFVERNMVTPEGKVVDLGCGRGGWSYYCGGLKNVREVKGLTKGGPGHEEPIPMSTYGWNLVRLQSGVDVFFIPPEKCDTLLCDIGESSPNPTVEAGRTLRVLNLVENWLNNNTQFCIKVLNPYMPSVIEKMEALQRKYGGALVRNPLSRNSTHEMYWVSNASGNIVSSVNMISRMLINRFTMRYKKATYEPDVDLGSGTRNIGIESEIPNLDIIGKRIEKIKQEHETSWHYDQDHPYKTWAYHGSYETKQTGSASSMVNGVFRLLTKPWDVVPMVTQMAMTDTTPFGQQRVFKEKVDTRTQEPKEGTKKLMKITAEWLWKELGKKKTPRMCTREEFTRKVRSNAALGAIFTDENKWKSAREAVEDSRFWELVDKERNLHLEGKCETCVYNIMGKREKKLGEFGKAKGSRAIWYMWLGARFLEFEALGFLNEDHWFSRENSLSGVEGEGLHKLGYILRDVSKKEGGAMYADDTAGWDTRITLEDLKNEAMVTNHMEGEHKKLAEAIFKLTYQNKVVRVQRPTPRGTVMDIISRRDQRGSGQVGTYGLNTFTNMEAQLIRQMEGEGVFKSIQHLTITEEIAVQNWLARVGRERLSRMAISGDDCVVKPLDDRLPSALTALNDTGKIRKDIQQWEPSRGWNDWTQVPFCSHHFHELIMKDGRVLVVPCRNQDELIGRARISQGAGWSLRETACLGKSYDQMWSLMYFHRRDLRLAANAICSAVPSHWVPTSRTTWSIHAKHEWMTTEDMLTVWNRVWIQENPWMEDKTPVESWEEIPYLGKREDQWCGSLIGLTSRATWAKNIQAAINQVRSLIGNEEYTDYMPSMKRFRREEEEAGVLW
The target in another assay is T4, Protein Tat (Human immunodeficiency virus type 1 group M subtype B (isolate HXB2)(HIV-1), UniProt P04608).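 Note: tat binding to TAR RNA read out by fluorescence polarization.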
T4 sequence (P04608 whole entry): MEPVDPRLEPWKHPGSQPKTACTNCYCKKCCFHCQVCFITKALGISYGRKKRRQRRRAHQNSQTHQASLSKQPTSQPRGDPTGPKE
The assay is classed as functional.

Assay [15] has as its target Glucose-6-phosphate 1-dehydrogenase (Homo sapiens, UniProt P11413). Nature of the assay: human G6PD enzyme inhibitors, dose response, selectivity assay for P. falciparum G6PD inhibitor project, biochemical, fluorescence (AID 504792). Format: functional.
The next assay addresses Albumin (Bos taurus, UniProt P02769). Nature of the assay: Counterscreen for inhibitors of T-cell receptor (TCR)-CD3 interaction: Fluorescence-based biochemical high throughput dose response assay to identify inhibitors of T-cell receptor (TCR)-CD3 interaction using a TAMRA-labeled BSA probe. Format: functional.
Assay [16] deals with T2, Mannose-6-phosphate isomerase. Nature of the assay: inhibitors of human PMI, primary screen, biochemical, fluorescence intensity, coupled assay (AID 1209).
The nature of assay [17]: P. falciparum Dd2 growth inhibitors, dose response, SYBR Green, dry powder samples, set 9 (AID 1159568). The assay is classed as functional, cell-based.

Each structure is given as a SMILES string. Active and inactive are the calls of the source.

Albumin, sequence (P02769 whole entry): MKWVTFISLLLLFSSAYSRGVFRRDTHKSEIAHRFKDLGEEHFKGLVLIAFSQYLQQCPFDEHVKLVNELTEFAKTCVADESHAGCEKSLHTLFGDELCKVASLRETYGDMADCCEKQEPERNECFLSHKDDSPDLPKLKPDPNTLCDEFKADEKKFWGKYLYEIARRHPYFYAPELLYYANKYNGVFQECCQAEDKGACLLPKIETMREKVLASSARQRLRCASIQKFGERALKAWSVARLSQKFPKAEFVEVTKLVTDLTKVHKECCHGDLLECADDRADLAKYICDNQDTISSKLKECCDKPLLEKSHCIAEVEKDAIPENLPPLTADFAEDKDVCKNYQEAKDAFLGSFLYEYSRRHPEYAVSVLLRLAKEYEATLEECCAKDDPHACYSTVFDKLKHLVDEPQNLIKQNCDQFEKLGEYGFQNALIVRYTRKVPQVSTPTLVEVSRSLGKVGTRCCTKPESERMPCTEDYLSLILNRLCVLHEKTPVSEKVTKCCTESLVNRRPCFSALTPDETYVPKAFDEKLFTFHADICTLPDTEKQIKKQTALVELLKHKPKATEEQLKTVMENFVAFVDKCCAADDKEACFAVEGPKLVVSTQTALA
Glutathione-S-transferase, sequence (Q26513 whole entry): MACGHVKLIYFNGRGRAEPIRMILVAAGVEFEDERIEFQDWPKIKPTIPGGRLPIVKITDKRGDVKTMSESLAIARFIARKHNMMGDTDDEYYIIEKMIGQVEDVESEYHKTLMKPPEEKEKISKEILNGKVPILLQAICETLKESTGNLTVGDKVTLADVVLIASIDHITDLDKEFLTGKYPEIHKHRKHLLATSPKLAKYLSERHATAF
Potassium channel subfamily K member 3 (Homo sapiens, UniProt O14649), sequence (O14649 whole entry): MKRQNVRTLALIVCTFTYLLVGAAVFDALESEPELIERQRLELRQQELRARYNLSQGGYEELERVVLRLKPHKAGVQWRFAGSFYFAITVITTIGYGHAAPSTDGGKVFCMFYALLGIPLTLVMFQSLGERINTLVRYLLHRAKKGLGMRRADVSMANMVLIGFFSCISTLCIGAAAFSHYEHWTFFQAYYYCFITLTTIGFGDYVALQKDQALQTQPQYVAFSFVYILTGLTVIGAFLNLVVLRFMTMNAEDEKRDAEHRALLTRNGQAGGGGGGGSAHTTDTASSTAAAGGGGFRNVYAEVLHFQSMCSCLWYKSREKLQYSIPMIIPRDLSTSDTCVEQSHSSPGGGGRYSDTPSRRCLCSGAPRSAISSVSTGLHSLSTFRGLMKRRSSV
Glucose-6-phosphate 1-dehydrogenase, sequence (P11413 whole entry): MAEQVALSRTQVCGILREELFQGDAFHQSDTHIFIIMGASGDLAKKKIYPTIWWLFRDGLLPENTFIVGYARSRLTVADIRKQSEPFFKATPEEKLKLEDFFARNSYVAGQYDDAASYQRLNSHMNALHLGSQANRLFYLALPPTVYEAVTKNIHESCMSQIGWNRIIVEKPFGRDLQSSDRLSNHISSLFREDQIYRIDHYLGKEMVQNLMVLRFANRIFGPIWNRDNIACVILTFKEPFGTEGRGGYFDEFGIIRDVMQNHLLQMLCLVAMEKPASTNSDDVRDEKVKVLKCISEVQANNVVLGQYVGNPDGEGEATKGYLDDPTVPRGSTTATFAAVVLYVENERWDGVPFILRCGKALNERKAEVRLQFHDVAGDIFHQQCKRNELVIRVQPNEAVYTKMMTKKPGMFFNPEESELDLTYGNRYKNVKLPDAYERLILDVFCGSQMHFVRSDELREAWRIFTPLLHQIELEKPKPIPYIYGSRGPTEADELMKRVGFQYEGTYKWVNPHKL
Induced myeloid leukemia cell differentiation protein Mcl-1, sequence (Q07820 whole entry): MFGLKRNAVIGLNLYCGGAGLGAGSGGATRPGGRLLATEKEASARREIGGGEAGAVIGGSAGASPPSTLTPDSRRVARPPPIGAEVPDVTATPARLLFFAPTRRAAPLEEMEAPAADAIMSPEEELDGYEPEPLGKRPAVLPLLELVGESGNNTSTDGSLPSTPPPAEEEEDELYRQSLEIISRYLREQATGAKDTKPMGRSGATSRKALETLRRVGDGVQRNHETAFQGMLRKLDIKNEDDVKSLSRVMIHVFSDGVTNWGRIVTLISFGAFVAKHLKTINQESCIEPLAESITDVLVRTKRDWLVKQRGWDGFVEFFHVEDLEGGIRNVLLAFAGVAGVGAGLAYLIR

What is called AC50 is the midpoint of the concentration-response curve, whichever way the signal moves. Consider `COc1cccc(-c2ccc([C@H]3[C@@H](CO)N(C(=O)Cc4ccccc4)[C@H]3C#N)cc2)c1`, for which the AC50 in assay [1] was 25.5 µM (active); in assay [2] it was > 70 µM (inactive); in [3], 10.8 µM (active); in [4], 6.07 µM (active); on Paired box protein Pax-8, 19.5 µM (active); in assay [5], 34.4 µM (active).
The IC50 is the concentration at which inhibition is half-maximal. Take `CCOc1ccccc1NC(=O)c1cccc(NC(=O)c2ccccc2)c1`: the IC50 in assay [6] was 2.14 µM (active); in assay [7] it was 0.121 µM (active); in [8] it was 1.43 µM (active); in assay [9], 0.06 µM (active).
As usually defined, the EC50 is the concentration at which the effect is half-maximal. Take `C/N=c1\scc(C)n1/N=C/c1ccc(O)c(O)c1O`: the IC50 is > 96.6 µM (inactive) in assay [10]; > 50 µM (not active) in assay [11]; 2.72 µM (active) in assay [12]; > 100 µM (active) in assay [13]; 13.9 µM (active) at Genome polyprotein; 49.8 µM (inconclusive) at Protein Tat. Further, the IC50 was 44 µM (inactive) in assay [15], > 94.1 µM (inactive) at Albumin and > 50 µM (not active) in assay [16]. In assay [14], the EC50 was > 300 µM (inconclusive).
For `C[C@@H]1CN([C@H](C)CO)C(=O)c2c(c3ccccc3n2C)-c2ccccc2CO[C@@H]1CN(C)S(=O)(=O)c1ccc([N+](=O)[O-])cc1`, in assay [17], the AC50 was 7.62 µM (active).
